Assays:
BACE1 proteins [1] = experiment: BACE1 protein expression under oxidative stress (HNE) conditions of brain nerve cells (Western blot); format: cell-based, human; details: SH-SY5Y cells pretreated 24 hours at 1, 5 and 10 μM, then HNE
Description: In order to determine an influence of chlorhexidine and thioguanosine of the present disclosure on an amount of BACE1 expression under oxidative stress conditions of brain nerve cells, the following experiment was performed. Brain nerve cells, SH-SY5Y cells, were pretreated with chlorhexidine and thioguanosine at 1 μM, 5 μM, and 10 μM for 24 hours. Then, an oxidative stress substance HNE (4-hydroxynonenal) was applied to the SH-SY5Y cells, and a change in the amount of BACE1 proteins was determined by Western blot. A change in an amount of BACE1 mRNA was determined by real-time PCR.

BACE1 mRNA [2] = experiment: BACE1 mRNA under oxidative stress (HNE) conditions of brain nerve cells (real-time PCR); format: cell-based, human; details: SH-SY5Y cells pretreated 24 hours at 1, 5 and 10 μM, then HNE
Description: In order to determine an influence of chlorhexidine and thioguanosine of the present disclosure on an amount of BACE1 expression under oxidative stress conditions of brain nerve cells, the following experiment was performed.
Brain nerve cells, SH-SY5Y cells, were pretreated with chlorhexidine and thioguanosine at 1 μM, 5 μM, and 10 μM for 24 hours. Then, an oxidative stress substance HNE (4-hydroxynonenal) was applied to the SH-SY5Y cells, and a change in the amount of BACE1 proteins was determined by Western blot. A change in an amount of BACE1 mRNA was determined by real-time PCR.
In this regard, in FIGS. 9 and 10, asterisks (**) indicate a significant (p≦0.01) increase of BACE1 mRNA expression relative to control. Similarly, number signs (##) indicate a significant (p≦0.01) decrease, and number signs (###) indicate a significant (p≦0.001) decrease in BACE1 mRNA expression relative to oxidative stress conditions.

[3] = Body weights and weights of organs (potential toxicity); details: mouse, in vivo, po, 25 mg/kg
Description: (§1) As an Alzheimer's dementia animal model, 3×Tg-AD mice were used. The 3×Tg-AD mouse is a mouse having overexpressed presenilin, amyloid precursor protein (APP), and Tau genes, which are frequently found in Alzheimer's dementia. The 3×Tg-AD mouse is an animal model that is widely used for research on Alzheimer's dementia (Oddo S. et al, 2003, Neuron, 39, 409-421). 25 mg/kg of chlorhexidine was orally administered every day for 4 weeks; and 0.1 mg/kg and 0.5 mg/kg of thioguanosine were orally administered every day for 8 weeks to 6-month old 3×Tg-AD mice. A Morris water maze test was used to evaluate the effects of chlorhexidine and thioguanosine administration on the mice.
In order to evaluate potential toxicity of chorhexidine, the body weights and weights of organs were measured for treatment and vehicle subjects.

BACE1 proteins [4] = experiment: BACE1 protein expression in brain of Alzheimer's dementia animal model (Western blot); format: in vivo; details: 3×Tg-AD mouse, 25 mg/kg orally every day for 4 weeks
Description: as §1
(§2) From the 3×Tg-AD mouse to which chlorhexidine was administered in Example 4a brain was extracted. The extracted brain was lysed using a tissue lysis buffer and RNA was extracted using Trizol. The amount of BACE1 expression was determined by Western blot and real-time PCR. FIGS. 18 and 19 show the results.

BACE1 mRNA [5] = experiment: BACE1 mRNA in brain of Alzheimer's dementia animal model (real-time PCR); format: in vivo; details: 3×Tg-AD mouse, 25 mg/kg orally every day for 4 weeks
Description: as §1, §2

Aβ = experiment: Generation of Aβ in brain cortex, immuno staining; format: in vivo; details: 3×Tg-AD mouse, 25 mg/kg orally every day for 4 weeks
Description: as §1
From the 3×Tg-AD mouse to which chlorhexidine was administered in Example 4a brain was extracted. A […] frozen section was prepared from the extracted brain using a microtome. Then, generation of Aβ was measured using immuno staining or a human amyloid 13 (1-40) assay kit (IBL) and a human amyloid β (1-42) assay kit (IBL). FIGS. 20 and 21 show the results.

[H]/N=C(\N/C(=N/[H])NCCCCCCNC(=N)NC(=N)Nc1ccc(Cl)cc1)Nc1ccc(Cl)cc1 [chlorhexidine, N′,N′″″-hexane-1,6-diylbis[N-(4-chlorophenyl)(imidodicarbonimidic diamide)]]
increase in the amount of expression of BACE1 proteins due to oxidative stress (BACE1 proteins [1]): decreased at 5 μM and 10 μM | increase in the amount of BACE1 mRNA due to oxidative stress (BACE1 mRNA [2]): decreased at 1 μM and at 5 μM | toxicity [3]: no toxicity was determined | expression of BACE1 proteins in brain (BACE1 proteins [4]): lower expression of BACE1 proteins than that of the control group | amount of BACE1 mRNA in brain (BACE1 mRNA [5]): lower amount of BACE1 mRNA than that of the control group | generation of Aβ in cortex part of brain (Aβ): lower generation of Aβ than that of the control group

Source: patent US9549942B2, “Composition for preventing or treating degenerative brain diseases including compound downregulating expression of BACE1 proteins” (RESEARCH & BUSINESS FOUNDATION SUNGKYUNKWAN UNIVERSITY, priority 2013, dated 2017)
